Data taken from paper PMC12775434, “Ultra-large virtual screening unveils potent agonists of the neuromodulatory orphan receptor GPR139” (Nature Communications, 2025).
Where “and” joins values, the source holds several entries; their conditions need not be identical. Equal values may be shown once.

How the values were obtained:
Format in all cases: cell-based
[1] = biological target: T1, GPR139 (Gi2 activation) (Homo sapiens, UniProt Q6DWJ6); assay: BRET G protein activation (dissociation) assay, Gi2, HEK293A; settings: for G protein activation, Gi2: individual replicates
T1 construct: expressed in transfected cells; host or cells: HEK293A (transient, Lipofectamine 2000)
T1 sequence (Q6DWJ6 1-353): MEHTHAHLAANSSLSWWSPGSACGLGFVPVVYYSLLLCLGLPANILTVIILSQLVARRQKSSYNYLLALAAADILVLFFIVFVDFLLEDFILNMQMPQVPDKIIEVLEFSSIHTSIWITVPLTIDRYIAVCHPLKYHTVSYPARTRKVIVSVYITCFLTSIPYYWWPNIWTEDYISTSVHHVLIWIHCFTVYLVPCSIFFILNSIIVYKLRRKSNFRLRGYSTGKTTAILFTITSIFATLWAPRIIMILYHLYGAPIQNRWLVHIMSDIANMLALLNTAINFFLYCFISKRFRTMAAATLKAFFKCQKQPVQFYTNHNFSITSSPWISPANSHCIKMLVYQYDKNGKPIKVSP
Description: (§1) Primary screening and pharmacological characterization of compounds were performed using a CHO-K1 cell line that stably expresses human GPR139 (GPR139-CHOk1). The GPR139-CHOk1 cell line was kindly provided by H. Lundbeck A/S, Denmark[24]. GPR139-CHOk1 cells were grown in Ham’s F-12 Kaighn’s Modification Medium (ThermoFisher #21127030) supplemented with 10% dialyzed fetal bovine serum (US origin, ThermoFisher #26400044), 100 units/mL Penicillin-Streptomycin (ThermoFisher #15140122), and 1 mg/mL Geneticin (ThermoFisher #11811031). […] M1R-CHOk1 cells were purchased from The Missouri S&T cDNA Resource Center (#CEM100TN00). M1R-CHOk1 cells were grown in Ham’s F12 Medium (ThermoFisher #21765029) supplemented with 10% fetal bovine serum (Brazilian origin, ThermoFisher #10270106), 100 units/mL Penicillin-Streptomycin, and 0.25 mg/mL Geneticin. HEK293A cells transiently transfected with GPR139 were used for additional pharmacological assessment of signaling pathways activated by GPR139. HEK239A cells were generously provided by Dr. Asuka Inoue, Tohoku University, Japan. HEK293A cells were grown in Dulbecco’s Modified Eagle Medium (ThermoFisher #31966047) supplemented with 10% dialyzed fetal bovine serum and 100 units/mL Penicillin-Streptomycin. Cell lines were maintained at 37 °C in humidified incubator equilibrated with 5% CO2.
(§2) The G protein dissociation assay developed by the lab of Kirill A. Martemyanov was used to measure the coupling of multiple G proteins by GPR139[57]. The assay was performed as described previously with minor modifications. HEK293A cells were reverse transfected 20–24 h prior to assay. 50,000 cells were plated in each well of white opaque tissue culture treated 96-well plates (PerkinElmer #6005680) previously coated with poly-D-lysine. Transfection solutions were prepared as described, and 10 µL transfection solution was mixed with 100 µL cells in each well. The cells in each well were transfected with 18.9 ng GPR139, 6.3 ng Venus 1-155 Gγ2, 6.3 ng Venus 159-239 Gβ1, 6.3 ng masGRK3ct-NanoLuc and 12.6 ng Gαi2, 12.6 ng Gαi3, 12.6 ng GαoA, 12.6 ng Gαq or 25.2 ng Gα12 using 375 nL Lipofectamine 2000 Transfection Reagent. Transfections with Gαq and Gα12 contained 6.3 ng DNA of the active subunit S1 of pertussis toxin (PTX-S1). Each transfection was normalized to 150 ng total DNA with pcDNA3.1. The BRET biosensors were a kind gift from the Martemyanov lab. On the day of the experiment the cells were washed with HEPES buffer. Test compounds were diluted in HEPES buffer from DMSO stocks (final DMSO concentration of maximally 0.3%). NanoLuc Luciferase substrate NanoGlo—furimazine (Promega #N1120) was diluted 1000-fold (final) in HEPES buffer. NanoGlo and test compounds were added, and measurements were performed after 10 s for Gi3, 15 s for Gi2 and GoA, 20 s for Gq, and 90 s for G12—the timepoint where maximal signal occurred with each G protein, ensuring proper determination of the potency for the G protein coupling. Simultaneous dual emission was measured at 535 nm and 475 nm on LUMIstar Omega Microplate Reader (BMG Labtech) at room temperature. The BRET ratio of 535 nm/475 nm (Venus/NanoLuc), reflecting the dissociation of the G protein heterotrimer, was used to determine the G protein activation. The basal BRET ratio obtained with buffer condition was subtracted from the absolute BRET ratio at a given test compound concentration, and the responses were normalized to the one obtained with 10 µM JNJ-63533054 for the activation of Gi2.
(§3) Pharmacological data and statistical analyses were performed in GraphPad Prism v9–10 (Graphpad Software Inc., San Diego, CA), which are also specifically described in the figure and table legends. […]

[2] = biological target: T2, GPR139 (Gi3 activation) (Homo sapiens, UniProt Q6DWJ6); assay: BRET G protein activation (dissociation) assay, Gi3, HEK293A; settings: for G protein activation, Gi3: individual replicates
T2 construct: expressed in transfected cells; host or cells: HEK293A (transient, Lipofectamine 2000)
T2 sequence (Q6DWJ6 1-353): T1 sequence (Q6DWJ6 1-353)
Description: as §1, §2, §3

[3] = biological target: T3, GPR139 (GoA activation) (Homo sapiens, UniProt Q6DWJ6); assay: BRET G protein activation (dissociation) assay, GoA, HEK293A; settings: for G protein activation, GoA: individual replicates
T3 construct: expressed in transfected cells; host or cells: HEK293A (transient, Lipofectamine 2000)
T3 sequence (Q6DWJ6 1-353): T1 sequence (Q6DWJ6 1-353)
Description: as §1, §2, §3

[4] = biological target: T4, GPR139 (G12 activation) (Homo sapiens, UniProt Q6DWJ6); assay: BRET G protein activation (dissociation) assay, G12, HEK293A; settings: for G protein activation, G12: individual replicates
T4 construct: expressed in transfected cells; host or cells: HEK293A (transient, Lipofectamine 2000)
T4 sequence (Q6DWJ6 1-353): T1 sequence (Q6DWJ6 1-353)
Description: as §1, §2, §3

[5] = HEK293-A, normalized to JNJ-63533054 (JNJ(S))

Structure (SMILES): C[C@@H](NC(=O)CNC(=O)c1cccc(Cl)c1)c1ccccc1 [JNJ(R), reference compound]
- Emax [1, 5]: 86 ± 4%
- EC50 ([1]; Supplementary Table 6, read-out: pEC50 Gi2 (converted)): 3.98 µM
- G protein activation, Gi2 ([1]; log [compound] M -4.5): 73 % of JNJ-63533054 at Gi2 and 81 % of JNJ-63533054 at Gi2 and 77 % of JNJ-63533054 at Gi2
- G protein activation, Gi2 ([1]; log [compound] M -5.0): 61 % of JNJ-63533054 at Gi2 and 62 % of JNJ-63533054 at Gi2 and 65 % of JNJ-63533054 at Gi2
- G protein activation, Gi2 ([1]; log [compound] M -5.5): 41 % of JNJ-63533054 at Gi2 and 43 % of JNJ-63533054 at Gi2 and 42 % of JNJ-63533054 at Gi2
- G protein activation, Gi2 ([1]; log [compound] M -6.0): 16 % of JNJ-63533054 at Gi2 and 23 % of JNJ-63533054 at Gi2 and 21 % of JNJ-63533054 at Gi2
- G protein activation, Gi2 ([1]; log [compound] M -6.5): 6 % of JNJ-63533054 at Gi2 and 7 % of JNJ-63533054 at Gi2 and 10 % of JNJ-63533054 at Gi2
- G protein activation, Gi2 ([1]; log [compound] M -7.0): -0.885 % of JNJ-63533054 at Gi2 and 0.48 % of JNJ-63533054 at Gi2 and 10 % of JNJ-63533054 at Gi2
- G protein activation, Gi2 ([1]; log [compound] M -7.5): 0.698 % of JNJ-63533054 at Gi2 and -1 % of JNJ-63533054 at Gi2 and 11 % of JNJ-63533054 at Gi2
- G protein activation, Gi2 ([1]; log [compound] M -8.0): -0.866 % of JNJ-63533054 at Gi2 and -1.55 % of JNJ-63533054 at Gi2 and 11 % of JNJ-63533054 at Gi2
- Emax [2, 5]: 35 ± 6%
- EC50 ([2]; Supplementary Table 6, read-out: pEC50 Gi3 (converted)): 3.98 µM
- G protein activation, Gi3 ([2]; log [compound] M -4.5): 36 % of JNJ-63533054 at Gi2 and 21 % of JNJ-63533054 at Gi2 and 35 % of JNJ-63533054 at Gi2
- G protein activation, Gi3 ([2]; log [compound] M -5.0): 29 % of JNJ-63533054 at Gi2 and 16 % of JNJ-63533054 at Gi2 and 28 % of JNJ-63533054 at Gi2
- G protein activation, Gi3 ([2]; log [compound] M -5.5): 20 % of JNJ-63533054 at Gi2 and 7 % of JNJ-63533054 at Gi2 and 23 % of JNJ-63533054 at Gi2
- G protein activation, Gi3 ([2]; log [compound] M -6.0): 11 % of JNJ-63533054 at Gi2 (2×) and 4 % of JNJ-63533054 at Gi2
- G protein activation, Gi3 ([2]; log [compound] M -6.5): 5.48 % of JNJ-63533054 at Gi2 and -1.21 % of JNJ-63533054 at Gi2 and 3.19 % of JNJ-63533054 at Gi2
- G protein activation, Gi3 ([2]; log [compound] M -7.0): 3.32 % of JNJ-63533054 at Gi2 and -6 % of JNJ-63533054 at Gi2 and 6 % of JNJ-63533054 at Gi2
- G protein activation, Gi3 ([2]; log [compound] M -7.5): 3 % of JNJ-63533054 at Gi2 and -5 % of JNJ-63533054 at Gi2 and 7.51 % of JNJ-63533054 at Gi2
- G protein activation, Gi3 ([2]; log [compound] M -8.0): -1 % of JNJ-63533054 at Gi2 and -3.25 % of JNJ-63533054 at Gi2 and 5 % of JNJ-63533054 at Gi2
- Emax [3, 5]: 79 ± 1%
- EC50 ([3]; Supplementary Table 6): 5.01 µM
- G protein activation, GoA ([3]; log [compound] M -4.5): 73 % of JNJ-63533054 at Gi2 and 70 % of JNJ-63533054 at Gi2 and 62 % of JNJ-63533054 at Gi2
- G protein activation, GoA ([3]; log [compound] M -5.0): 58 % of JNJ-63533054 at Gi2 and 53 % of JNJ-63533054 at Gi2 and 47 % of JNJ-63533054 at Gi2
- G protein activation, GoA ([3]; log [compound] M -5.5): 37 % of JNJ-63533054 at Gi2 and 33 % of JNJ-63533054 at Gi2 and 28 % of JNJ-63533054 at Gi2
- G protein activation, GoA ([3]; log [compound] M -6.0): 16 % of JNJ-63533054 at Gi2 and 13 % of JNJ-63533054 at Gi2 and 14 % of JNJ-63533054 at Gi2
- G protein activation, GoA ([3]; log [compound] M -6.5): 5.7 % of JNJ-63533054 at Gi2 and 1.59 % of JNJ-63533054 at Gi2 and 5.63 % of JNJ-63533054 at Gi2
- G protein activation, GoA ([3]; log [compound] M -7.0): -0.263 % of JNJ-63533054 at Gi2 and -1.74 % of JNJ-63533054 at Gi2 and 2.49 % of JNJ-63533054 at Gi2
- G protein activation, GoA ([3]; log [compound] M -7.5): -1.44 % of JNJ-63533054 at Gi2 and 0.514 % of JNJ-63533054 at Gi2 and 0.72 % of JNJ-63533054 at Gi2
- G protein activation, GoA ([3]; log [compound] M -8.0): -1.46 % of JNJ-63533054 at Gi2 and -2.26 % of JNJ-63533054 at Gi2 and 3.8 % of JNJ-63533054 at Gi2
- Emax [4, 5]: 48 ± 3%
- EC50 ([4]; Supplementary Table 6, read-out: pEC50 G12 (converted)): 3.98 µM
- G protein activation, G12 ([4]; log [compound] M -4.5): 45 % of JNJ-63533054 at Gi2 and 42 % of JNJ-63533054 at Gi2 and 41 % of JNJ-63533054 at Gi2
- G protein activation, G12 ([4]; log [compound] M -5.0): 37 % of JNJ-63533054 at Gi2 and 34 % of JNJ-63533054 at Gi2 and 33 % of JNJ-63533054 at Gi2
- G protein activation, G12 ([4]; log [compound] M -5.5): 24 % of JNJ-63533054 at Gi2 (2×) and 19 % of JNJ-63533054 at Gi2
- G protein activation, G12 ([4]; log [compound] M -6.0): 13 % of JNJ-63533054 at Gi2 and 11 % of JNJ-63533054 at Gi2 and 9 % of JNJ-63533054 at Gi2
- G protein activation, G12 ([4]; log [compound] M -6.5): 7 % of JNJ-63533054 at Gi2 and 5 % of JNJ-63533054 at Gi2 and 2.85 % of JNJ-63533054 at Gi2
- G protein activation, G12 ([4]; log [compound] M -7.0): 1.33 % of JNJ-63533054 at Gi2 and 4 % of JNJ-63533054 at Gi2 and 0.154 % of JNJ-63533054 at Gi2
- G protein activation, G12 ([4]; log [compound] M -7.5): 0.474 % of JNJ-63533054 at Gi2 and 6 % of JNJ-63533054 at Gi2 and 1.7 % of JNJ-63533054 at Gi2
- G protein activation, G12 ([4]; log [compound] M -8.0): -0.892 % of JNJ-63533054 at Gi2 and 6 % of JNJ-63533054 at Gi2 and 2.38 % of JNJ-63533054 at Gi2
